# Tests used:
# [1] = system: subjects with advanced hematologic malignancies undergoing myeloablative allogeneic hematopoietic cell transplantation; conditions: in vivo
# From the text: Acute GVHD was staged and graded per MAGIC Standardization criteria.
# Acute GVHD was staged and graded per Mount Sinai Acute GvHD International Consortium (MAGIC) Standardization criteria.
# [2] = system: subjects with advanced hematologic malignancies undergoing myeloablative allogeneic hematopoietic cell transplantation; experiment: Chronic GVHD, per NIH consensus criteria; format: in vivo, human; conditions: Example 3, serum tacrolimus trough level higher vs lower than 4 ng/ml
# Description: Chronic GVHD was diagnosed, staged, and graded per the International NIH Chronic GVHD Diagnosis and Staging Consensus Working Group criteria.
# Chronic GVHD: As chronic GVHD (cGVHD) is associated with significant morbidity and with decreased survival, reducing the severity or incidence of cGVHD has the potential to greatly benefit graft recipients. Chronic GVHD was diagnosed per 2014 International NIH Chronic GVHD Diagnosis and Staging Consensus Working Group criteria.
# Analysis was conducted using a cutoff of 365 days (i.e., cGVHD events that occur after Day ^+365 were not included). […] Additionally, several subjects in the study group have undergone greater than 2.5 years of follow-up with no cGVHD symptoms reported.
# [3] = system: subjects with advanced hematologic malignancies undergoing myeloablative allogeneic hematopoietic cell transplantation; experiment: Overall survival; format: in vivo, human; conditions: Example 3, tacrolimus-only relative to sirolimus-only patients
# From the text: Overall survival: OS was defined as the time from the date of transplant to the date of death from any cause or, for surviving patients, to the date of last follow-up. […] The difference was statistically significant (p=0.0242 by log-rank test).
# [4] = system: subjects with advanced hematologic malignancies undergoing myeloablative allogeneic hematopoietic cell transplantation; experiment: Disease relapse / relapse-free survival / disease status after therapy; format: in vivo, human; conditions: Example 3, tacrolimus-only relative to sirolimus-only patients
# From the text: Incidence of disease relapse: For acute leukemias, relapse was defined as any of the following (MRD^+ alone was insufficient): (i) ≥5% blasts in the bone marrow or peripheral blood; or (ii) Reappearance of pre-transplant cytogenetic abnormality; or (iii) new evidence or redevelopment of extramedullary disease. For MDS, relapse was defined as any of the following: (i) satisfying criteria for evolution into acute leukemia; (ii) reappearance of pre-transplant morphologic abnormalities, detected in bone marrow specimens; or, (iii) reappearance of pre-transplant cytogenetic abnormality in at least one metaphase on each of two separate consecutive examinations at least one month apart, regardless of the number of metaphases analyzed.
# Subjects in the study were first evaluated for relapse on day ^+90 post-transplant.
# [5] = system: subjects with advanced hematologic malignancies undergoing myeloablative allogeneic hematopoietic cell transplantation; experiment: GVHD and relapse-free survival (GRFS); format: in vivo, human; conditions: Example 3, tacrolimus-only relative to sirolimus-only patients
# From the text: GVHD and relapse-free survival is a composite readout that can refer to survival without relapse or Grade ≥3 acute or extensive chronic GVHD. At the time of reporting, the percent of GVHD-free and relapse-free survival to one-year post-transplant was 74% for the study group, compared to 34% for the SOC cohort, as shown in FIG. 4F. The difference was statistically significant (p=0.0001 by log-rank test).
# [6] = system: Patients with hematologic malignancies; experiment: Relapse, non-relapse mortality, relapse-free survival, GRFS and overall survival after transplant; format: in vivo, human; conditions: with Orca-T; relapse-free survival through 1 year; FIG. 14
# From the text: FIGS. 1A-B illustrate the schematics of the transplant according to the methods described herein (identified as High-Precision Orca-T or Orca-T) and the differences compared to a standard of care (SOC) cohort (identified as Conventional Transplant or SOC).
SMILES,GVHD rates [1],chronic GVHD rates [2],overall survival rates [3],survival (FIG. 7E) [3],relapse rates [4],GRFS rates [5],effect of addition of thiotepa to busulfan-based conditioning regimens on relapse and non-relapse mortality [6]
C=CC[C@@H]1/C=C(\C)C[C@H](C)C[C@H](OC)[C@H]2O[C@@](O)(C(=O)C(=O)N3CCCC[C@H]3C(=O)O[C@H](/C(C)=C/[C@@H]3CC[C@@H](O)[C@H](OC)C3)[C@H](C)[C@@H](O)CC1=O)[C@H](C)C[C@@H]2OC [tacrolimus],higher,improvements,improved,improved,improved,improved,
S=P(N1CC1)(N1CC1)N1CC1 [thiotepa],,,,,,,decreases relapse without increasing non-relapse mortality
